# Source: ChEMBL document CHEMBL1130295, “A QSAR study of antiplatelet agents using artificial neural network - correlation with micelle-water partition coefficient” (1997)
# Assay: Antiplatelet activity as log (APA) by using artificial neural network (ANN) method
# Assay type: functional
row,SMILES,Observed log APA
1,COc1c(-c2nc(C)c(-c3cccnc3)[nH]2)cc2nc(O)[nH]c2c1Cl,0.79
2,Cc1nc2cc(-c3nc(C)c(-c4cccnc4)[nH]3)c(C)cc2[nH]1,0.74
3,COc1cc2c(cc1-c1nc(C)c(-c3cccnc3)[nH]1)nc(O)n2C,0.57
4,COc1ccccc1-c1nc(C)c(-c2cccnc2)[nH]1,1.1
5,Cc1[nH]c(-c2ccccc2N)nc1-c1cccnc1,0.8
6,Cc1[nH]c(-c2ccccc2F)nc1-c1cccnc1,1.4
7,Cc1[nH]c(-c2ccccc2Cl)nc1-c1cccnc1,0.38
8,CCOc1ccccc1-c1nc(C)c(-c2cccnc2)[nH]1,1.1
9,CCOC(=O)COc1ccccc1-c1nc(C)c(-c2cccnc2)[nH]1,0.6
10,Cc1ccccc1-c1nc(C)c(-c2cccnc2)[nH]1,0.18
11,COc1cc(NC(C)=O)c(Cl)cc1-c1nc(C)c(-c2cccnc2)[nH]1,1.4
12,Cc1nc2cc(Cl)c(-c3nc(C)c(-c4cccnc4)[nH]3)cc2[nH]1,0.68
13,COc1c(-c2nc(C)c(-c3cccnc3)[nH]2)cc2nc(C)[nH]c2c1Cl,1.4
14,COc1cc(OC)c(-c2nc(C)c(-c3cccnc3)[nH]2)cc1NC(C)=O,0.93
15,COC(=O)Nc1ccccc1-c1nc(C)c(-c2cccnc2)[nH]1,1.4
16,CNC(=O)Nc1ccccc1-c1nc(C)c(-c2cccnc2)[nH]1,1.1
17,COc1cc(NC(C)=O)c([N+](=O)[O-])cc1-c1nc(C)c(-c2cccnc2)[nH]1,1.5
18,COc1cc2[nH]c(C)nc2cc1-c1nc(C)c(-c2cccnc2)[nH]1,0.83
19,CSc1ccccc1-c1nc(C)c(-c2cccnc2)[nH]1,0.95
20,COc1c(-c2nc(C)c(-c3cccnc3)[nH]2)ccc2[nH]c(C)nc12,0.72
21,COc1c(-c2nc(C)c(-c3cccnc3)[nH]2)cc(Cl)c2[nH]c(CCC(=O)O)nc12,0.4
22,COc1c(-c2nc(C)c(-c3cccnc3)[nH]2)cc(Cl)c2[nH]c(C)nc12,1.3
